# Measurements as given in PubChem BioAssay (NCI).
#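 How tested: cells in 96-well plates exposed to compound for 48 hours at five concentrations. GI50: concentration for 50% inhibition of growth. At the TGI there is no net growth.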
# How the values were obtained:
# Assay in all cases: NCI tumour cell line growth inhibition, 48 h
# [1] = system: HCT-15 colon
# [2] = system: A498 renal
# [3] = system: BT-549 breast
# [4] = system: MOLT-4 leukemia
# [5] = system: MDA-MB-231 breast
# [6] = system: A549 NSCLC
# [7] = system: RXF 393 renal
# [8] = system: KM12 colon
# [9] = system: UACC-257 melanoma
# [10] = system: DU-145 prostate
# [11] = system: MDA-MB-435
# [12] = system: NCI-H226 lung
# [13] = system: HOP-62 NSCLC
# [14] = system: OVCAR-5 ovarian
# [15] = system: SK-MEL-2 melanoma
# [16] = system: NCI/ADR-RES ovarian
# [17] = system: SF-268 CNS
# [18] = system: COLO 205 colon
# [19] = system: IGROV1 ovarian
# [20] = system: SK-MEL-5 melanoma
# [21] = system: MCF7 breast
# [22] = system: HCT-116 colon
# [23] = system: ACHN renal
# [24] = system: K-562 leukemia
# [25] = system: NCI-H23 lung
# [26] = system: SR leukemia
# [27] = system: RPMI-8226 leukemia
# [28] = system: HT29 colon
# [29] = system: CAKI-1 renal
# [30] = system: UO-31 renal
# [31] = system: EKVX NSCLC
# [32] = system: OVCAR-8 ovarian
# [33] = system: HCC-2998 colon
# [34] = system: M14 melanoma
# [35] = system: UACC-62 melanoma
# [36] = system: 786-0 renal
# [37] = system: SN12C renal
# [38] = system: PC-3 prostate
# [39] = system: NCI-H460 lung
# [40] = system: HOP-92 NSCLC
# [41] = system: CCRF-CEM leukemia
# [42] = system: HS 578T breast
# [43] = system: T-47D breast
# [44] = system: SNB-75 CNS
# [45] = system: SK-OV-3 ovarian
# [46] = system: NCI-H522 lung
# [47] = system: SF-295 CNS
# [48] = system: SF-539 CNS
# [49] = system: SK-MEL-28 melanoma
# [50] = system: SNB-19 CNS
# [51] = system: MALME-3M melanoma
# [52] = system: TK-10 renal
# [53] = system: SW-620 colon
# [54] = system: U251 CNS
# [55] = system: HL-60(TB) leukemia
# [56] = system: OVCAR-4 ovarian
compound,measurement,setting,value
COc1ccc(Cn2cc3c(c2-c2cc(OC)c(OC)c(OC)c2)CCc2c(CN4CCCC4)noc2-3)cc1,GI50,[1],0.475 µM
same,TGI,[1],12.1 µM
same,GI50,[2],0.78 µM
same,TGI,[2],6.38 µM
same,GI50,[3],2.47 µM
same,TGI,[3],14.3 µM
same,GI50,[4],1.47 µM
same,TGI,[4],32.8 µM
same,GI50,[5],3.05 µM
same,TGI,[5],15.2 µM
same,GI50,[6],1.33 µM
same,TGI,[6],> 100 µM
same,GI50,[7],0.893 µM
same,TGI,[7],7.96 µM
same,GI50,[8],12.6 µM
same,TGI,[8],81.2 µM
same,GI50,[9],17 µM
same,TGI,[9],47.7 µM
same,GI50,[10],4 µM
same,TGI,[10],> 100 µM
same,GI50,[11],0.239 µM
same,TGI,[11],0.595 µM
same,GI50,[12],2.07 µM
same,TGI,[12],30.3 µM
same,GI50,[13],1.41 µM
same,TGI,[13],32.6 µM
same,GI50,[14],3.2 µM
same,TGI,[14],> 100 µM
same,GI50,[15],13.2 µM
same,TGI,[15],41.4 µM
same,GI50,[16],0.55 µM
same,TGI,[16],11.2 µM
same,GI50,[17],3.15 µM
same,TGI,[17],29.8 µM
same,GI50,[18],0.941 µM
same,TGI,[18],5.49 µM
same,GI50,[19],0.892 µM
same,TGI,[19],> 100 µM
same,GI50,[20],1.02 µM
same,TGI,[20],11.9 µM
same,GI50,[21],0.325 µM
same,TGI,[21],20 µM
same,GI50,[22],0.466 µM
same,TGI,[22],14.9 µM
same,GI50,[23],0.634 µM
same,TGI,[23],36.5 µM
same,GI50,[24],0.348 µM
same,TGI,[24],16.6 µM
same,GI50,[25],2.8 µM
same,TGI,[25],> 100 µM
same,GI50,[26],0.36 µM
same,TGI,[26],13.5 µM
same,GI50,[27],1.27 µM
same,TGI,[27],9.04 µM
same,GI50,[28],0.398 µM
same,TGI,[28],12.6 µM
same,GI50,[29],0.451 µM
same,TGI,[29],20.2 µM
same,GI50,[30],1.16 µM
same,TGI,[30],13.7 µM
same,GI50,[31],2.11 µM
same,TGI,[31],> 100 µM
same,GI50,[32],3.27 µM
same,TGI,[32],78.9 µM
same,GI50,[33],1.84 µM
same,TGI,[33],14.6 µM
same,GI50,[34],0.582 µM
same,TGI,[34],10.6 µM
same,GI50,[35],0.545 µM
same,TGI,[35],22.7 µM
same,GI50,[36],0.997 µM
same,TGI,[36],21.9 µM
same,GI50,[37],4.43 µM
same,TGI,[37],78 µM
same,GI50,[38],0.636 µM
same,TGI,[38],> 100 µM
same,GI50,[39],0.566 µM
same,TGI,[39],12.6 µM
same,GI50,[40],1.35 µM
same,TGI,[40],12 µM
same,GI50,[41],0.727 µM
same,TGI,[41],> 100 µM
same,GI50,[42],1.8 µM
same,TGI,[42],27.3 µM
same,GI50,[43],2.65 µM
same,TGI,[43],48 µM
same,GI50,[44],0.668 µM
same,TGI,[44],4.83 µM
same,GI50,[45],6.7 µM
same,TGI,[45],> 100 µM
same,GI50,[46],0.472 µM
same,TGI,[46],18.9 µM
same,GI50,[47],0.461 µM
same,TGI,[47],12.4 µM
same,GI50,[48],0.753 µM
same,TGI,[48],4.46 µM
same,GI50,[49],11.5 µM
same,TGI,[49],29.6 µM
same,GI50,[50],0.78 µM
same,TGI,[50],> 100 µM
same,GI50,[51],0.496 µM
same,TGI,[51],21.4 µM
same,GI50,[52],23.4 µM
same,TGI,[52],> 100 µM
same,GI50,[53],0.54 µM
same,TGI,[53],80.3 µM
same,GI50,[54],0.543 µM
same,TGI,[54],21.1 µM
same,GI50,[55],0.317 µM
same,TGI,[55],1.28 µM
same,GI50,[56],21.4 µM
same,TGI,[56],> 100 µM
